This is an account of results in patent US20240124381A1, “Renewable Bio-advantaged plasticizer generated by reductive coupling of lignin-derived aromatics” (Alliance for Sustainable Energy, LLC, priority 2022, published 2024).

The nature of data set [1]: Glass transition temperature of plasticized PVC by differential scanning calorimetry (DSC). It counts as physicochemical. The following applies: PVC composite with 10 wt % plasticizer; unplasticized PVC 83.0 ° C.; lower preferred. The text has this: (§1) FIG. 5 provides thermal analysis of lignin-derived biaryl plasticizers. From left to right: unplasticized PVC, 10 wt % plasticized PVC with DEHP, and 10 wt % plasticized PVC with lignin-derived biaryl plasticizers.
(§2) Plasticizer properties of lignin-derived biaryls. The above results provide access to all possible homo- and cross-coupled BPDA derivatives of H, G, and S. These structures provide the basis for testing of these materials as plasticizers for PVC and comparison of their performance relative to the existing petroleum-derived incumbent, di(2-ethylhexyl)phthalate (DEHP). Each of the BPDA methyl esters was subjected to Ti(OBu)4-promoted transesterification with 2-ethylhexanol to afford the corresponding DEH-BPDA derivatives, designated H—H^PL, H-G^PL, H—S^PL, G-G^PL, G-S^PL, and S—S^PL. The thermal properties of these structures were characterized by thermogravimetric analysis (TGA) and differential scanning calorimetry (DSC). DEHP and the DEH-BPDA derivatives were then individually integrated with PVC at 10 wt %, and the composites were analyzed by TGA and DSC to identify their glass transition temperature (Tg) and the temperature at which the polymer degrades with 10% or 50% loss of its original weight (Td10, Td50). The former value reflects the ability of the plasticizer to soften PVC, while the latter values reflect the thermostability of the composite material. […]
(Differential scanning calorimetry records heat flow against a reference as temperature is scanned.)

Data set [2] can be described thus: Thermostability of plasticized PVC by thermogravimetric analysis (TGA). In kind it is physicochemical. The conditions noted are these: PVC composite with 10 wt % plasticizer; PVC itself 272 ° C.; higher preferred.
Description: as §1, §2

Turning to `CCCCC(CC)COC(=O)c1ccccc1C(=O)OCC(CC)CCCC` (centres unmarked) [DEHP, di(2-ethylhexyl)phthalate], the “glass transition temperature (Tg)” value in data set [1] was determined as 52.1 °C. Also, in data set [2], the “Td10 (temperature at which the polymer degrades with 10% loss of its original weight)” value stood at 253 °C.
